Measurements: US9464064B2, “HCV helicase inhibitors and methods of use thereof” (University of Kansas, priority 2011, dated 2016)
Read-outs that look alike come from different tables or passages of the source.

Columns and labels:
[1] = tested on: Huh-7.5 cells; assay: Cell viability assay ([…]-GLO); assay type: cell-based, human; conditions: for Cell viability (% viable): 10 μM compound, triplicate, average ± SD
Description: To assess compound toxicity toward Huh-7.5 cells, cells were plated and treated as above and cell viability was assessed using the […]-GLO luminescent cell viability kit (PROMEGA) following the manufacturer's instructions. Briefly, at the end of a 72 hour incubation period, the medium was aspirated and the cells were washed with 1×PBS, then an equal volume of growth medium and […]-GLO reagent was added and the lysis was initiated by mixing on an orbital shaker. The plate was incubated at 23° C. for 30 minutes and the luciferase activity was measured for 1 second using the FLUOSTAR Omega microplate reader (BMG Labtech).

[2] = tested on: MBHA DNA substrate; assay: Modified FID assay, SYBR Green I; assay type: binding; conditions: for DNA binding (%): SYBR Green I-FID, average (±SD) percent bound at 100 μM
Description: A modified FID assay, in which ethidium bromide was replaced with SYBR Green I (Invitrogen), was used to estimate a compounds affinity for the MBHA substrate. Reactions were performed as described above except that the DNA substrate was present at 0.32 μM, ethidium bromide was absent, and SYBER Green was present at (0.68 μM). Data were normalized as described above and fit to concentration-response equation using GraphPad Prism software. Titrations with each compound were performed in triplicate, and EC50 values from three independent titrations are reported ±standard deviations.

[3] = biological target: T1, E. coli SSB-Cy5-dT15 complex (Escherichia coli, UniProt P0AGE0); assay: Escherichia coli SSB Cy5-dT15 binding assay (fluorescence polarization); conditions: for inhibition at 100 µM: read-out: SSB % Displaced @ 100 μM
T1 construct: purchased Promega
Description: The Escherichia coli SSB assay was performed in a total volume of 20.2 μl in 384-well, flat-bottom, low volume, black microplates (Greiner Bio-One). First, 20 μl of a assay solution (5 nM Cy5-[…]-3′ (Cy5-dT15, SEQ ID NO:5), 20 nM E. coli SSB (Promega), 25 mM MOPS, pH 7.5, 1.25 mM MgCl2, 0.0025 mg/ml BSA, 0.005% (v/v) TWEEN 20 and 0.025 mM DTT) was dispensed in each well, then 0.2 μl of dimethylsulfoxide (DMSO) or compound dissolved in DMSO was added by pin transfer, such that the final concentration of DMSO was 1% (v/v) in each assay.
For IC50 determination, assays were performed with 60 μl total volume in black flat bottomed 384-well microplates (Corning). First, 3.0 μl of DMSO or compound dissolved in DMSO was added, such that the final concentration of DMSO was 5% (v/v) in each assay. Then 57 μl of a assay solution (5 nM Cy5-dT15, 20 nM SSB, 25 mM MOPS, pH 7.5, 1.25 mM MgCl2, 0.0025 mg/ml BSA, 0.005% (v/v) TWEEN 20 and 0.025 mM DTT) was dispensed in each well. Polarization was monitored with a TECAN Infinite M1000 PRO multi-mode microplate reader by exciting at 635 nm (5 nm bandwidth) and measuring total fluorescence intensity, parallel and perpendicular polarized light at 667 nm (20 nm bandwidth).

[4] = tested on: HCV RLuc subgenomic replicon (genotype 1b) in Huh-7.5 cells; assay: HCV subgenomic replicon assay (Renilla luciferase); assay type: cell-based, hepatitis C virus; conditions: for inhibition at 10 µM: Hepatitis C virus; for ability to decrease the amount of HCV RNA present in the cultures: 10 μM
Description: An HCV Renilla luciferase reporter construct (HCV RLuc; Huang, et al. (2006) Hepatology 43:81-90) was used to measure the effect of each compound on cellular HCV RNA levels. In HCV RLuc, the HCV internal ribosome entry site (IRES) drives the translation of the neomycin and Renilla luciferase genes while the HCV nonstructural proteins (NS3 to NS5B) are translated from the Encephalomyocarditis virus IRES (Huang, et al. (2006) supra). The plasmid DNA was cleaved with ScaI, purified by phenol/chloroform extraction followed by ethanol precipitation, and used as template for RNA transcription using […] T7 RNA transcription kit (Ambion, Austin, Tex.). The RNA transcripts were treated with 2 U DNase I (Ambion) at 37° C. for 30 minutes, purified by acid phenol/chloroform extraction, followed by isopropanol precipitation, and suspended in diethylpyrocarbonate-treated water. RNA concentration was determined by spectrophotometry by measuring the A260. RNA integrity and size was checked on 1% agarose gel. Transcribed RNA was stored in aliquots at −80° C. until needed.
Huh-7.5 cells were transfected with HCV RNA by electroporation. Briefly, subconfluent Huh7.5 cells were trypsinized, suspended in complete growth medium, and centrifuged at 1,000×g for 5 minutes at 4° C. The cell pellets were then washed twice with ice-cold phosphate-buffered saline (PBS) and suspended at 1.75×10^7 cells/mL in ice-cold PBS. Replicon RNA (5 μg) was mixed with 0.4 mL of cell suspension and transferred to 2 mm gap width electroporation cuvette (EPPENDORF AG, Germany) and pulsed 5 times for 99 μsec at 820 V over 1.1 sec intervals using the ECM 830 electroporator instrument (BTX Harvard Apparatus, Holliston, Mass.). After a 5 minute recovery period at room temperature, cells were transferred to 10 ml complete growth medium, and seeded into 10 cm diameter cell culture dishes. Twenty-four hours after transfection, the medium was replaced with fresh complete DMEM supplemented with 1 mg/ml geneticin (Invitrogen) and the medium was replaced every three to four days with fresh medium containing 1 mg/mL geneticin. Geneticin-resistant colonies were selected for a period of two weeks and expanded in the presence of 250 μg/mL geneticin.
HCV RLuc replicon cells were seeded at a density of 10×10^3 cells per well in 96-well plates and incubated for 4-5 hours to allow the cells to attach to the plate. The compounds dissolved in dimethyl sulfoxide (DMSO) were added at a final concentration of 10 μM (DMSO solvent final concentration was 0.5%) and the cells were incubated for 72 hours at 37° C. under 5% CO2 atmosphere. The effects of compounds on HCV replication were then assessed by measuring the Renilla luciferase activity in compound-treated versus DMSO-treated cells. At the end of the incubation period, the medium was aspirated and the cells were washed with 1×PBS. The Renilla luciferase reporter gene assay was performed using the Renilla luciferase assay kit (PROMEGA, Madison, Wis.) according to the manufacturer's instructions. Briefly, the cells were lysed by addition of 50 μL of 1× Renilla luciferase lysis buffer followed by two cycles of freeze/thaw. The luciferase activity content of the lysate was measured with a FLUOSTAR Omega microplate reader instrument (BMG Labtech, Germany) after injecting 50 μL of luciferase substrate and reading for 5 seconds.
To determine if the above identified compounds might be useful as HCV antiviral agents, they were added to cells harboring HCV subgenomic RNA replicon. The HCV replicon chosen was derived from the same HCV strain (genotype 1b) as the NS3 protein used for screening and enzyme assays. […] 75:4614-4624; Blight, et al. (2002) J. Virol. 76:13001-13014). […]

[5] = SYBR Green, read-out: FID (SG) EC50 (converted)
[6] = disruption of Cy5-dT15-SSB complex, read-out: Cy5-dT15-SSB Binding IC50
[7] = Huh7.5, 10 μM, read-out: Replicon (% Inhibition @ 10 μM)
[8] = Huh7.5, 10 μM compound, triplicate, average ± SD, read-out: HCV replication (% Inh.)

T1 sequence (P0AGE0 2-178, one chain of several): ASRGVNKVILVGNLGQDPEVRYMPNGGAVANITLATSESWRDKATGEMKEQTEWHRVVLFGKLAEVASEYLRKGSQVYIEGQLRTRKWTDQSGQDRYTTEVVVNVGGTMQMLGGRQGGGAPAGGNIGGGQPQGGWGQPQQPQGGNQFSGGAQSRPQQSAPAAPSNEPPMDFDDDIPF

| SMILES | Cell Viability (% @ 10 μM) [1] [%] | FID (SG) % Displaced @ 100 μM ([2]; SYBR Green) [%] | EC50 [2, 5] [µM] | IC50 [3, 6] [µM] | inhibition at 100 µM [3] [%] | EC50 ([3]; read-out: SSB EC50) [µM] | inhibition at 10 µM [4, 7] [%] | also measured |
| --- | --- | --- | --- | --- | --- | --- | --- | --- |
| Cc1ccc2nc(-c3ccc(NC(=O)c4ccc(NC(=O)c5ccc(C(F)(F)F)cc5)cc4)cc3)sc2c1S(=O)(=O)O.N [Compound 44] | 97 ± 7 | 41 ± 2 | > 100 | 23 ± 6 | 86 | 23 | 4 ± 8 |  |
| Cc1ccc2nc(-c3ccc4nc(-c5ccc(NC(=O)c6ccc(CNC(=O)OCC7c8ccccc8-c8ccccc87)cc6)cc5)sc4c3)sc2c1S(=O)(=O)O.N [Compound 41] | 102 ± 6 | 53 ± 25 | 56 | 57 ± 16 | 59 | 57 | 48 ± 18 |  |
| Cc1ccc2nc(-c3ccc(NC(=O)c4ccc(NC(=O)c5ccccc5)cc4)cc3)sc2c1S(=O)(=O)O.N [Compound 40] | 115 ± 3 | 18 ± 2 | > 100 | 57 ± 13 | 84 | 57 | -19 ± 42 |  |
| COc1ccc(C(=O)Nc2ccc(-c3nc4ccc(-c5nc6ccc(C)c(S(=O)(=O)O)c6s5)cc4s3)cc2)cc1 [Compound 8, 2′-(4-(4-methoxybenzamido)phenyl)-6-methyl-[2,6′-bibenzo[d]thiazole]-7-sulfonic acid] | 85 ± 5 | 35 ± 10 | > 100 |  | 92 |  |  | Cell viability (% viable) [1]: 85 ± 5%; DNA binding (%) [2]: 35 ± 10%; EC50 [3]: 2 ± 1 µM; IC50 [3]: 2 ± 1 µM; inhibition at 10 µM ([4]; Huh7.5, read-out: HCV replication (% Inh.)): 64 ± 4%; inhibition at 10 µM ([4]; Huh7.5, read-out: Replicon (% Inhibition @ 10 μM)): 64 ± 4% |
| Cc1ccc2nc(-c3ccc4nc(-c5ccc(NC(=O)c6cccc(C(F)(F)F)c6F)cc5)sc4c3)sc2c1S(=O)(=O)O [Compound 22, 2′-(4-(2-fluoro-3-(trifluoromethyl)benzamido)phenyl)-6-methyl-[2,6′-bibenzo[d]thiazole]-7-sulfonic acid] | 122 ± 1 | 49 ± 27 | > 100 | 71 ± 13 | 63 | 71 ± 13 | 48 ± 18 | Cell viability (% viable) [1]: 122 ± 1%; DNA binding (%) [2]: 49 ± 27%; inhibition at 10 µM [4, 8]: 48 ± 18% |
| Cc1ccc2nc(-c3ccc4nc(NC(=O)c5ccc6ncoc6c5)sc4c3)sc2c1 | 28 ± 5 |  |  |  |  |  | 90 ± 35 |  |
| Cc1ccc2nc(-c3ccc4nc(-c5ccc(N(C)C(=O)c6ccc7ccccc7c6)cc5)sc4c3)sc2c1S(=O)(=O)O [Compound 34, 6-methyl-2′-(4-(N-methyl-2-naphthamido)phenyl)-[2,6′-bibenzo[d]thiazole]-7-sulfonic acid] | 101 ± 9 | 35 ± 23 | > 100 | 9 ± 2 | 105 | 9 | 24 ± 32 | DNA binding (%) [2]: 35 ± 23%; inhibition at 10 µM [4, 8]: -30 ± 30% |
| Cc1ccc2nc(-c3ccc4nc(-c5ccc(NC(=O)c6ccc7ncoc7c6)cc5)sc4c3)sc2c1S(=O)(=O)O | 114 ± 13 |  |  |  |  |  | 15 ± 11 |  |
| Cc1ccc2nc(-c3ccc4nc(-c5ccc6nc(-c7ccc(N)cc7)sc6c5)sc4c3)sc2c1S(=O)(=O)O [Compound P3, 2″-(4-aminophenyl)-6-methyl-[2,6′:2′,6″-terbenzo[d]thiazole]-7-sulfonic acid] |  |  |  |  |  |  |  | ability to decrease the amount of HCV RNA present in the cultures [4]: showed any ability to decrease the amount of HCV RNA present in the cultures |
| Cc1ccc2nc(-c3ccc4nc(-c5ccc6nc(-c7ccc8nc(-c9ccc(N)cc9)sc8c7)sc6c5)sc4c3)sc2c1S(=O)(=O)O [Compound P4, 2′″-(4-aminophenyl)-6-methyl-[2,6′:2″,6′″-quaterbenzo[d]thiazole]-7-sulfonic acid] |  |  |  |  |  |  |  | fold weaker DNA binding than potency in MBHA ([2]; DNA binding versus MBHA IC50): 17 fold; EC50 ([2]; FID, mean ± SD, read-out: DNA Binding (SYBR Green I) EC50): 15 ± 8 µM; ability to decrease the amount of HCV RNA present in the cultures [4]: showed any ability to decrease the amount of HCV RNA present in the cultures |
| Cc1ccc2nc(-c3ccc4nc(-c5ccc(N)cc5)sc4c3)sc2c1S(=O)(=O)O [Compound P2a, 2′-(4-aminophenyl)-6-methyl-[2,6′-bibenzo[d]thiazole]-7-sulfonic acid] |  |  |  | 2 |  |  |  |  |
| Cc1ccc2nc(-c3ccc(NC(=S)Nc4ccccc4Br)cc3)sc2c1 | 39 ± 10 |  |  |  |  |  | 80 ± 17 |  |
| Cc1ccc2nc(-c3ccc4nc(-c5ccc(NS(=O)(=O)c6ccc(C(F)(F)F)cc6)cc5)sc4c3)sc2c1S(=O)(=O)O | 101 ± 6 |  |  |  |  |  | -7 ± 14 |  |
| Cc1ccc2nc(-c3ccc(NC(=O)c4ccc(NS(=O)(=O)c5ccccc5)cc4)cc3)sc2c1S(=O)(=O)O | 119 ± 11 |  |  |  | 61 | > 100 | -73 ± 50 |  |
| Cc1ccc2nc(-c3ccc(NC(=O)c4ccc(N)cc4)cc3)sc2c1S(=O)(=O)O | 103 ± 6 |  |  |  |  |  | 21 ± 29 |  |
| Cc1ccc2nc(-c3ccc(NC(=O)c4ccc(C(F)(F)F)cc4)cc3)sc2c1S(=O)(=O)O | 102 ± 9 |  |  |  |  |  | 11 ± 14 |  |
